Consider 13 compounds from the NIST ThermoML archive (doi:10.1016/j.tca.2013.09.017).

The conditions of data set [1]: 298.15 K, 101.33 kPa, Liquid; for speed of sound: Sing-around technique in a fixed-path interferometer; for mass density: Vibrating tube method.
The nature of data set [2]: mn = molality of the nth substance listed, in mol/kg. To be noted: 298.15 K, 101 kPa, Liquid; for speed of sound: Sing-around technique in a fixed-path interferometer; for mass density: Vibrating tube method.

By speed of sound is commonly meant how fast a sound wave travels through the sample. As a reminder, the mass density is mass per unit of volume.

± gives the expanded uncertainty stated by the source.

With `CCC(=O)N(C)C` [N,N-dimethylpropionamide], in data set [1], the speed of sound amounted to 1425.4 ± 1.2 m/s and the mass density worked out at 921.16 ± 0.19 kg/m3.

In the case of `CCC(=O)N(C)C` [N,N-dimethylpropionamide] + O, the speed of sound in data set [2] (m1 = 0.0588) worked out at 1501.1 ± 1.1 m/s; in data set [2] (m1 = 0.1486), 1508.1 ± 1.1 m/s; in data set [2] (m1 = 0.2471), 1515.7 ± 1.1 m/s; in data set [2] (m1 = 0.3518) it was 1522 ± 1.1 m/s; in data set [2] (m1 = 0.4457), 1528.2 ± 1.1 m/s. Also, the mass density in data set [2] (m1 = 0.0588) is 996.85 ± 0.07 kg/m3; in data set [2] (m1 = 0.1486), 996.53 ± 0.07 kg/m3; in data set [2] (m1 = 0.2471) it was 996.2 ± 0.08 kg/m3; in data set [2] (m1 = 0.3518), 995.95 ± 0.08 kg/m3; in data set [2] (m1 = 0.4457) it was 995.72 ± 0.08 kg/m3.

Regarding `CCCCCCC` [heptane], in data set [1], the speed of sound is on record as 1131.4 ± 0.92 m/s and the mass density is given as 679.51 ± 0.21 kg/m3.

As for `CN1CCCC1=O` [N-methylpyrrolidone] + CCCO, the speed of sound amounted to 1209.1 ± 1 m/s in data set [2] (m1 = 0.0757); 1211.6 ± 1 m/s in data set [2] (m1 = 0.1611); 1213.4 ± 1 m/s in data set [2] (m1 = 0.2275); 1215.6 ± 1 m/s in data set [2] (m1 = 0.3064); 1217.6 ± 1 m/s in data set [2] (m1 = 0.381). The mass density is 801.03 ± 0.15 kg/m3 in data set [2] (m1 = 0.0757); 802.58 ± 0.15 kg/m3 in data set [2] (m1 = 0.1611); 803.78 ± 0.15 kg/m3 in data set [2] (m1 = 0.2275); 805.2 ± 0.15 kg/m3 in data set [2] (m1 = 0.3064); 806.51 ± 0.15 kg/m3 in data set [2] (m1 = 0.381).

In the case of `CN1CCCC1=O` [N-methylpyrrolidone], in data set [1], the speed of sound came to 1545.2 ± 1.1 m/s and the mass density was found to be 1028.01 ± 0.08 kg/m3.

For `CCCCO` [butan-1-ol], in data set [1], the speed of sound is given as 1240.5 ± 0.97 m/s and the mass density worked out at 805.72 ± 0.15 kg/m3.

Consider `CCC(=O)N(C)C` [N,N-dimethylpropionamide] + CCCO, for which the speed of sound came out at 1207.9 ± 1 m/s in data set [2] (m1 = 0.0515); 1209.6 ± 1 m/s in data set [2] (m1 = 0.1316); 1211.2 ± 1 m/s in data set [2] (m1 = 0.2061); 1212.9 ± 1 m/s in data set [2] (m1 = 0.2845); 1214.5 ± 1 m/s in data set [2] (m1 = 0.3632). In addition, the mass density in data set [2] (m1 = 0.0515) is on record as 800.16 ± 0.15 kg/m3; in data set [2] (m1 = 0.1316), 801.03 ± 0.15 kg/m3; in data set [2] (m1 = 0.2061) it was 801.84 ± 0.15 kg/m3; in data set [2] (m1 = 0.2845), 802.68 ± 0.15 kg/m3; in data set [2] (m1 = 0.3632) it was 803.51 ± 0.15 kg/m3.

Consider `CCCO` [propan-1-ol], for which, in data set [1], the speed of sound stood at 1206.7 ± 0.95 m/s and the mass density amounted to 799.58 ± 0.15 kg/m3.

Consider `CCC(=O)N(C)C` [N,N-dimethylpropionamide] + CCO, for which the speed of sound in data set [2] (m1 = 0.0587) was found to be 1146.6 ± 0.9 m/s; in data set [2] (m1 = 0.1486) it was 1148.1 ± 0.9 m/s; in data set [2] (m1 = 0.2471) it was 1150.7 ± 0.9 m/s; in data set [2] (m1 = 0.3517), 1153.2 ± 0.9 m/s; in data set [2] (m1 = 0.4456), 1155.3 ± 0.9 m/s. For the same compound, the mass density is reported as 785.99 ± 0.16 kg/m3 in data set [2] (m1 = 0.0587); 787.09 ± 0.16 kg/m3 in data set [2] (m1 = 0.1486); 788.4 ± 0.16 kg/m3 in data set [2] (m1 = 0.2471); 789.6 ± 0.15 kg/m3 in data set [2] (m1 = 0.3517); 790.79 ± 0.15 kg/m3 in data set [2] (m1 = 0.4456).

Turning to `C1CCCCC1` [cyclohexane], in data set [1], the speed of sound was 1255 ± 0.97 m/s and the mass density came to 773.82 ± 0.16 kg/m3.

Take `CCC(=O)N(C)C` [N,N-dimethylpropionamide] + CO: the speed of sound in data set [2] (m1 = 0.0618) is listed as 1105 ± 0.9 m/s; in data set [2] (m1 = 0.1442), 1107 ± 0.9 m/s; in data set [2] (m1 = 0.2317), 1109.6 ± 0.9 m/s; in data set [2] (m1 = 0.3264) it was 1112 ± 0.9 m/s; in data set [2] (m1 = 0.4233), 1114.7 ± 0.9 m/s. For the same compound, the mass density in data set [2] (m1 = 0.0618) was 787.53 ± 0.16 kg/m3; in data set [2] (m1 = 0.1442) it was 788.62 ± 0.16 kg/m3; in data set [2] (m1 = 0.2317) it was 789.76 ± 0.15 kg/m3; in data set [2] (m1 = 0.3264) it was 790.9 ± 0.15 kg/m3; in data set [2] (m1 = 0.4233), 792.14 ± 0.15 kg/m3.

On to `CN1CCCC1=O` [N-methylpyrrolidone] + O, for which the speed of sound in data set [2] (m1 = 0.0621) is on record as 1500.7 ± 1.1 m/s; in data set [2] (m1 = 0.1225) it was 1504.4 ± 1.1 m/s; in data set [2] (m1 = 0.1806) it was 1507.8 ± 1.1 m/s; in data set [2] (m1 = 0.2399) it was 1511.4 ± 1.1 m/s; in data set [2] (m1 = 0.3036), 1515.1 ± 1.1 m/s. The mass density in data set [2] (m1 = 0.0621) came to 997.34 ± 0.07 kg/m3; in data set [2] (m1 = 0.1225) it was 997.63 ± 0.07 kg/m3; in data set [2] (m1 = 0.1806) it was 997.92 ± 0.07 kg/m3; in data set [2] (m1 = 0.2399), 998.21 ± 0.07 kg/m3; in data set [2] (m1 = 0.3036), 998.54 ± 0.07 kg/m3.

As for `CCO` [ethanol], in data set [1], the speed of sound is given as 1145.2 ± 0.93 m/s and the mass density is 785.22 ± 0.16 kg/m3.
